What all share (experiment): cell-based
For assay [1], the target named is hNav1.7 (Homo sapiens, UniProt Q15858). The format is cell-based. The conditions noted are these: IonWorks Quattro, use-dependent protocol, hNav1.7; read-out: IWQ Use Nav1.7.
Assay [2] deals with hNav1.5 (Homo sapiens, UniProt Q14524). The settings on record: IonWorks Quattro, use-dependent protocol, hNav1.5; read-out: IWQ Use Nav1.5. Background: Patch clamp records ionic current or voltage across a cell membrane.
Assay [3] has as its target hNav1.3 (Homo sapiens, UniProt Q9NY46). The conditions noted are these: IonWorks Quattro, use-dependent protocol, hNav1.3; read-out: IWQ Use Nav1.3.

hNav1.7, sequence (Q15858 whole entry, looked up): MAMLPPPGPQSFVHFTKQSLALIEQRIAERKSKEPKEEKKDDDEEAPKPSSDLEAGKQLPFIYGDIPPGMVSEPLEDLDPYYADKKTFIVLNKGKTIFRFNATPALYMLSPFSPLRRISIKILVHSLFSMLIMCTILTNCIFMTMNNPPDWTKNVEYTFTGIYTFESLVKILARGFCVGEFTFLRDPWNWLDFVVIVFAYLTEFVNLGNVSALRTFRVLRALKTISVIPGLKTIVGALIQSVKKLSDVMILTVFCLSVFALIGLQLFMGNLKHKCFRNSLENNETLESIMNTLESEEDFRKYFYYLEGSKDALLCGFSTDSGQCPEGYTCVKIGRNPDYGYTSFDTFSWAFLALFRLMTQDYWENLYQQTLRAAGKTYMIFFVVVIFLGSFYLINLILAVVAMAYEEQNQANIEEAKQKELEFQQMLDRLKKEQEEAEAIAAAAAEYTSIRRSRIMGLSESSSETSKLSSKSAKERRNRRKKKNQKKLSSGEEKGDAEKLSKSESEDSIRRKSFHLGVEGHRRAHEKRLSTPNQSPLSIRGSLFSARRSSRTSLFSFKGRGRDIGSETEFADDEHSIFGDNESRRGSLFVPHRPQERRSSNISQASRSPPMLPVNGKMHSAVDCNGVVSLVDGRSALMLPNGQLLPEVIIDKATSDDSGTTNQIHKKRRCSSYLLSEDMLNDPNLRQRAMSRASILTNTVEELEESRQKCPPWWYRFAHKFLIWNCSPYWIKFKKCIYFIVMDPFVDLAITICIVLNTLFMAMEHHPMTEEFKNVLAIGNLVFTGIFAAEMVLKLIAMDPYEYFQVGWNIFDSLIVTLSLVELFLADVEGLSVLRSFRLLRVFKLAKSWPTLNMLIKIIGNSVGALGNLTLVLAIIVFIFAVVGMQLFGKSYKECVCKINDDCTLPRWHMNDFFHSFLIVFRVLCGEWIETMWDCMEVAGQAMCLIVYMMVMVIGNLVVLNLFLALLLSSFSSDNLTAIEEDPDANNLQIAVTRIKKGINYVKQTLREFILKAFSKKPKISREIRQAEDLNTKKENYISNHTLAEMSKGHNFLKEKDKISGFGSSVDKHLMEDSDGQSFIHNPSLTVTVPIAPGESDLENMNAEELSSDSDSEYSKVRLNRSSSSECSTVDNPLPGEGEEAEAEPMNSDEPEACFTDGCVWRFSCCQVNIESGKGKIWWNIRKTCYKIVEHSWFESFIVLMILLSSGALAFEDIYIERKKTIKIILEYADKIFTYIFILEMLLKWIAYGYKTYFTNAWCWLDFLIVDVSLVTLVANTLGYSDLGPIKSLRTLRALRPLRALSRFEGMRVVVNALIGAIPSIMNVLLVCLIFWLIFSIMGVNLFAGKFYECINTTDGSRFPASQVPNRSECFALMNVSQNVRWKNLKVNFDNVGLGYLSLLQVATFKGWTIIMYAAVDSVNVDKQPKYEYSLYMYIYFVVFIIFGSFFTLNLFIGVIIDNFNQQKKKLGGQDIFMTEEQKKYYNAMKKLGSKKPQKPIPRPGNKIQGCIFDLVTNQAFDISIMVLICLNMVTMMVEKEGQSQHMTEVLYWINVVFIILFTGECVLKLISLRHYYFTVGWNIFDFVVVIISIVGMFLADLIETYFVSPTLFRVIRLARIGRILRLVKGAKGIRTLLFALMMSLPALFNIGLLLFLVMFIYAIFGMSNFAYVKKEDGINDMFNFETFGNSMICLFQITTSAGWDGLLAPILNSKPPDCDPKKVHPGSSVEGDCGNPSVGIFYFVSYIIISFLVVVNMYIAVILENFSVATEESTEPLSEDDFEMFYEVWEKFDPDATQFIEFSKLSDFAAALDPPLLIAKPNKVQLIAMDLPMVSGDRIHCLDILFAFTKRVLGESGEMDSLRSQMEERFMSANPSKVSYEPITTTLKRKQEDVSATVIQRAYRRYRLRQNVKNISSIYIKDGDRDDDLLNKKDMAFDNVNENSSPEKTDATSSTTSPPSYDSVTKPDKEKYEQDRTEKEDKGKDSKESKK
hNav1.3, sequence (Q9NY46 whole entry, looked up): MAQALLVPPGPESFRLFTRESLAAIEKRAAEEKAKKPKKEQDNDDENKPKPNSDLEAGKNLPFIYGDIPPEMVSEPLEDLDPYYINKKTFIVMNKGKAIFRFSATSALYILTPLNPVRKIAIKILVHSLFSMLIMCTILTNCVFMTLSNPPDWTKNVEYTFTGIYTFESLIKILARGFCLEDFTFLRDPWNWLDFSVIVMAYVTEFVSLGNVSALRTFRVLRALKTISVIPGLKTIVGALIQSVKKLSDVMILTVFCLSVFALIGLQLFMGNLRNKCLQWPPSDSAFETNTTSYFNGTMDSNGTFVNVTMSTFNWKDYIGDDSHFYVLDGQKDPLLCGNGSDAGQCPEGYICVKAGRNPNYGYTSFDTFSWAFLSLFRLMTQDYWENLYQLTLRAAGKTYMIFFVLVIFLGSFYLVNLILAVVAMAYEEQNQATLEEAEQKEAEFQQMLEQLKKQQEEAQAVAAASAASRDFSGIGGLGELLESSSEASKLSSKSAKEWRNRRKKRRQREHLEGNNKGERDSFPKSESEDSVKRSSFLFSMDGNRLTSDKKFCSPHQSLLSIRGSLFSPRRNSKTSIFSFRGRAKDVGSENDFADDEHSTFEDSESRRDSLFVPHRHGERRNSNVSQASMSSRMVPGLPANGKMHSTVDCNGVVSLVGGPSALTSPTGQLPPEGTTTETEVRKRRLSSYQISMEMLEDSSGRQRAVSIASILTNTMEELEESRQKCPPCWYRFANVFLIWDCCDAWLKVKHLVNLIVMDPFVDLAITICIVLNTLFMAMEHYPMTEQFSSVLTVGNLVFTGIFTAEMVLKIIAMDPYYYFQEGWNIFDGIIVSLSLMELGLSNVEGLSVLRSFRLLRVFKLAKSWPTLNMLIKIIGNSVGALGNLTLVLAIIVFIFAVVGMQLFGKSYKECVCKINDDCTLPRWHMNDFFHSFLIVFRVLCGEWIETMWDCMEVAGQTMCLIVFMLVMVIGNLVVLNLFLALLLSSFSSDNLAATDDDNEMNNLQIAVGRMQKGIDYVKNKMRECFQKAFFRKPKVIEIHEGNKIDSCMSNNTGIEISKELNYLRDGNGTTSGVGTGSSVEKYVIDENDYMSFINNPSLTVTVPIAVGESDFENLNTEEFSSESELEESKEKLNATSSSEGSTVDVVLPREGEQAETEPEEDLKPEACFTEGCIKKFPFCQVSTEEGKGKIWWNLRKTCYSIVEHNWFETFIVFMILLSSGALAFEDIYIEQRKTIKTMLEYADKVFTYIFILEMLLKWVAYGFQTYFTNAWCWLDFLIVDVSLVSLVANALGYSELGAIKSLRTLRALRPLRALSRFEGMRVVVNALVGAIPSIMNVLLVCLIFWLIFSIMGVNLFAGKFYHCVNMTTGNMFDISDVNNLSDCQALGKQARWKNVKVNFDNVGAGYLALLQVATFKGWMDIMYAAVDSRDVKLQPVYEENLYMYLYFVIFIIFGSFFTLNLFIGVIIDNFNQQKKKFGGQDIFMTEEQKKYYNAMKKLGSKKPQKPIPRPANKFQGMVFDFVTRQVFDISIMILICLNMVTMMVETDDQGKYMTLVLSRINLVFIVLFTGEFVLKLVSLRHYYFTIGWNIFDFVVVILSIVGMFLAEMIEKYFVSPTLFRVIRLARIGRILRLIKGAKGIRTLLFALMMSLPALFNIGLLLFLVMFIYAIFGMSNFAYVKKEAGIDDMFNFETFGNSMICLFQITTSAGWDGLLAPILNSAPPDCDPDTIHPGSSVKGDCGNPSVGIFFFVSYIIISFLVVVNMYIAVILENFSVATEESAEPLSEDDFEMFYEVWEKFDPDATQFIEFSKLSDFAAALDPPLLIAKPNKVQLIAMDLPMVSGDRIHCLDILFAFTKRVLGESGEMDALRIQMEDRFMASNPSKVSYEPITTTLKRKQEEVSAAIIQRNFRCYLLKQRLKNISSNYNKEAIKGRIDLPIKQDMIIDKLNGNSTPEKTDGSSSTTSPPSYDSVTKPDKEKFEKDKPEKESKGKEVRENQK

On to `CC[C@H](C)[C@@H]1NC(=O)[C@@H]2CSSC[C@@H]3NC(=O)[C@H](C(C)C)NC(=O)[C@H](CC(C)C)NC(=O)[C@H](CC(N)=O)NC(=O)[C@@H]4CCCN4C(=O)[C@H](CCCNC(=N)N)NC(=O)[C@H](CSSC[C@H](NC(=O)[C@@H](N)CC(=O)O)C(=O)N[C@@H](CC(C)C)C(=O)NCC(=O)N[C@@H](Cc4ccc(I)cc4)C(=O)N[C@@H](CC(C)C)C(=O)N[C@@H](CCCNC(=N)N)C(=O)N[C@@H](CCCCN)C(=O)N2)NC(=O)[C@H](CSSC[C@@H](C(=O)N[C@@H](CCCCN)C(=O)N[C@@H](Cc2ccc(O)cc2)C(=O)N[C@H](C(=O)N[C@@H](Cc2ccccc2)C(N)=O)C(C)C)NC(=O)[C@H](Cc2c[nH]c4ccccc24)NC(=O)[C@H](CCCCN)NC(=O)[C@H](Cc2c[nH]cn2)NC(=O)[C@H]([C@@H](C)O)NC(=O)[C@H](CCCNC(=N)N)NC(=O)[C@H](CO)NC3=O)NC(=O)[C@H](CCCCN)NC(=O)[C@H](CC(=O)O)NC(=O)[C@H](CC(N)=O)NC(=O)[C@H](CC(=O)O)NC(=O)[C@@H]2CCCN2C1=O` [compound 667], for which the IC50 in assay [1] was 0.12 µM; in assay [2], over 5 µM; in assay [3] it was 0.017 µM.
On to `CC[C@H](C)[C@@H]1NC(=O)[C@@H]2CSSC[C@@H]3NC(=O)[C@H](C(C)C)NC(=O)[C@H](CC(C)C)NC(=O)[C@H](CC(N)=O)NC(=O)[C@@H]4CCCN4C(=O)[C@H](CCCNC(=N)N)NC(=O)[C@H](CSSC[C@H](NC(=O)[C@@H](N)CC(=O)O)C(=O)N[C@@H](CC(C)C)C(=O)NCC(=O)N[C@@H](Cc4ccc(C(F)(F)F)cc4)C(=O)N[C@@H](CC(C)C)C(=O)N[C@@H](CCCNC(=N)N)C(=O)N[C@@H](CCCCN)C(=O)N2)NC(=O)[C@H](CSSC[C@@H](C(=O)N[C@@H](CCCCN)C(=O)N[C@@H](Cc2ccc(O)cc2)C(=O)N[C@H](C(=O)N[C@@H](Cc2ccccc2)C(N)=O)C(C)C)NC(=O)[C@H](Cc2c[nH]c4ccccc24)NC(=O)[C@H](CCCCN)NC(=O)[C@H](Cc2c[nH]cn2)NC(=O)[C@H]([C@@H](C)O)NC(=O)[C@H](CCCNC(=N)N)NC(=O)[C@H](CO)NC3=O)NC(=O)[C@H](CCCCN)NC(=O)[C@H](CC(=O)O)NC(=O)[C@H](CC(N)=O)NC(=O)[C@H](CC(=O)O)NC(=O)[C@@H]2CCCN2C1=O` [compound 668], for which the IC50 in assay [1] was determined as 0.18 µM; in assay [2] it was 4.4 µM; in assay [3], 0.011 µM.
For `CC[C@H](C)[C@@H]1NC(=O)[C@@H]2CSSC[C@@H]3NC(=O)[C@H](C(C)C)NC(=O)[C@H](CC(C)C)NC(=O)[C@H](CC(N)=O)NC(=O)[C@@H]4CCCN4C(=O)[C@H](CCCNC(=N)N)NC(=O)[C@H](CSSC[C@H](NC(=O)[C@@H](N)CC(=O)O)C(=O)N[C@@H](CC(C)C)C(=O)NCC(=O)N[C@@H](Cc4ccc(F)cc4)C(=O)N[C@@H](CC(C)C)C(=O)N[C@@H](CCCNC(=N)N)C(=O)N[C@@H](CCCCN)C(=O)N2)NC(=O)[C@H](CSSC[C@@H](C(=O)N[C@@H](CCCCN)C(=O)N[C@@H](Cc2ccc(O)cc2)C(=O)N[C@H](C(=O)N[C@@H](Cc2ccccc2)C(N)=O)C(C)C)NC(=O)[C@H](Cc2c[nH]c4ccccc24)NC(=O)[C@H](CCCCN)NC(=O)[C@H](Cc2c[nH]cn2)NC(=O)[C@H]([C@@H](C)O)NC(=O)[C@H](CCCNC(=N)N)NC(=O)[C@H](CO)NC3=O)NC(=O)[C@H](CCCCN)NC(=O)[C@H](CC(=O)O)NC(=O)[C@H](CC(N)=O)NC(=O)[C@H](CC(=O)O)NC(=O)[C@@H]2CCCN2C1=O` [compound 669], the IC50 is 0.091 µM in assay [1], over 5 µM in assay [2] and 0.037 µM in assay [3].
Turning to `CC[C@H](C)[C@@H]1NC(=O)[C@@H]2CSSC[C@@H]3NC(=O)[C@H](C(C)C)NC(=O)[C@H](CC(C)C)NC(=O)[C@H](CC(N)=O)NC(=O)[C@@H]4CCCN4C(=O)[C@H](CCCNC(=N)N)NC(=O)[C@H](CSSC[C@H](NC(=O)[C@@H](N)CC(=O)O)C(=O)N[C@@H](CC(C)C)C(=O)NCC(=O)N[C@@H](Cc4ccc(C)cc4)C(=O)N[C@@H](CC(C)C)C(=O)N[C@@H](CCCNC(=N)N)C(=O)N[C@@H](CCCCN)C(=O)N2)NC(=O)[C@H](CSSC[C@@H](C(=O)N[C@@H](CCCCN)C(=O)N[C@@H](Cc2ccc(O)cc2)C(=O)N[C@H](C(=O)N[C@@H](Cc2ccccc2)C(N)=O)C(C)C)NC(=O)[C@H](Cc2c[nH]c4ccccc24)NC(=O)[C@H](CCCCN)NC(=O)[C@H](Cc2c[nH]cn2)NC(=O)[C@H]([C@@H](C)O)NC(=O)[C@H](CCCNC(=N)N)NC(=O)[C@H](CO)NC3=O)NC(=O)[C@H](CCCCN)NC(=O)[C@H](CC(=O)O)NC(=O)[C@H](CC(N)=O)NC(=O)[C@H](CC(=O)O)NC(=O)[C@@H]2CCCN2C1=O` [compound 670], the IC50 in assay [1] is 0.19 µM; in assay [2], over 5 µM; in assay [3], 0.055 µM.
Turning to `CC[C@H](C)[C@@H]1NC(=O)[C@@H]2CSSC[C@@H]3NC(=O)[C@H](C(C)C)NC(=O)[C@H](CC(C)C)NC(=O)[C@H](CC(N)=O)NC(=O)[C@@H]4CCCN4C(=O)[C@H](CCCNC(=N)N)NC(=O)[C@H](CSSC[C@H](NC(=O)[C@@H](N)CC(=O)O)C(=O)N[C@@H](CC(C)C)C(=O)NCC(=O)N[C@@H](Cc4ccc(C(C)(C)C)cc4)C(=O)N[C@@H](CC(C)C)C(=O)N[C@@H](CCCNC(=N)N)C(=O)N[C@@H](CCCCN)C(=O)N2)NC(=O)[C@H](CSSC[C@@H](C(=O)N[C@@H](CCCCN)C(=O)N[C@@H](Cc2ccc(O)cc2)C(=O)N[C@H](C(=O)N[C@@H](Cc2ccccc2)C(N)=O)C(C)C)NC(=O)[C@H](Cc2c[nH]c4ccccc24)NC(=O)[C@H](CCCCN)NC(=O)[C@H](Cc2c[nH]cn2)NC(=O)[C@H]([C@@H](C)O)NC(=O)[C@H](CCCNC(=N)N)NC(=O)[C@H](CO)NC3=O)NC(=O)[C@H](CCCCN)NC(=O)[C@H](CC(=O)O)NC(=O)[C@H](CC(N)=O)NC(=O)[C@H](CC(=O)O)NC(=O)[C@@H]2CCCN2C1=O` [compound 671], the values for the IC50 in assay [1], in assay [2] and in assay [3] were 0.14 µM, over 5 µM and 0.05 µM, respectively.
Take `CC[C@H](C)[C@@H]1NC(=O)[C@@H]2CSSC[C@@H]3NC(=O)[C@H](C(C)C)NC(=O)[C@H](CC(C)C)NC(=O)[C@H](CC(N)=O)NC(=O)[C@@H]4CCCN4C(=O)[C@H](CCCNC(=N)N)NC(=O)[C@H](CSSC[C@H](NC(=O)[C@@H](N)CC(=O)O)C(=O)N[C@@H](CC(C)C)C(=O)NCC(=O)N(C)[C@@H](C(C)C)C(=O)N[C@@H](CC(C)C)C(=O)N[C@@H](CCCNC(=N)N)C(=O)N[C@@H](CCCCN)C(=O)N2)NC(=O)[C@H](CSSC[C@@H](C(=O)N[C@@H](CCCCN)C(=O)N[C@@H](Cc2ccc(O)cc2)C(=O)N[C@H](C(=O)N[C@@H](Cc2ccccc2)C(N)=O)C(C)C)NC(=O)[C@H](Cc2c[nH]c4ccccc24)NC(=O)[C@H](CCCCN)NC(=O)[C@H](Cc2c[nH]cn2)NC(=O)[C@H]([C@@H](C)O)NC(=O)[C@H](CCCNC(=N)N)NC(=O)[C@H](CO)NC3=O)NC(=O)[C@H](CCCCN)NC(=O)[C@H](CC(=O)O)NC(=O)[C@H](CC(N)=O)NC(=O)[C@H](CC(=O)O)NC(=O)[C@@H]2CCCN2C1=O` [compound 672]: the results for the IC50 in assay [1], in assay [2] and in assay [3] were 0.47 µM, over 5 µM and 0.75 µM, respectively.

The values above are taken from US9340590B2 (priority 2011, dated 2016).
